Activity calls are given as the source filed them. The rule behind the calls is not given here.
Tests used:
[1] = Apparent permeability of the compound across apical to basolateral side in human Caco-2 cells expressing Pgp/BCRP at 10 uM incubated for 120 mins by LC-MS/MS analysis; format: ADME, cell-based; conditions: caco-2, 2 h
[2] = In vivo inhibition of LMP2 activity in BALB/c mouse brain at 150 mg/kg, po measured after 6 hrs post dose relative to control; format: functional
[3] = Toxicity in BALB/c mouse assessed as paralysis at 100 mg/kg, po; format: organism-based; conditions: in vivo
[4] = Toxicity in BALB/c mouse assessed as diarrhea at 100 mg/kg, po; format: organism-based; conditions: in vivo
[5] = molecular target: T1, Proteasome subunit beta type-9 (Homo sapiens, UniProt P28065); experiment: Inhibition of human LMP2 using Ac-PAL-AMC as substrate incubated for 1 hr by fluorescence based SpectraMax M5e plate reader
T1 sequence (P28065 whole entry): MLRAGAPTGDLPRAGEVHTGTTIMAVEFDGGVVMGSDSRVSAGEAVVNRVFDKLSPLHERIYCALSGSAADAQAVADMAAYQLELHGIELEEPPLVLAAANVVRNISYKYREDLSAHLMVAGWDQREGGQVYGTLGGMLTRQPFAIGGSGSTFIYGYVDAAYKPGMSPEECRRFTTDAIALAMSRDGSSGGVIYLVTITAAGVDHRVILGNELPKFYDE

[6] = Oral bioavailability in BALB/c mouse at 150 mg/kg measured after 15 to 360 mins by LC-MS/MS analysis; format: ADME, organism-based; conditions: in vivo, time 15-360 min
[7] = Drug recovery in human plasma; format: ADME, cell-free
[8] = Mutagenicity in Salmonella typhimurium TA98 at 0.01 to 100 uM incubated for 90 mins in absence of liver S9 fraction by AMES test; format: toxicity; conditions: salmonella enterica subsp. enterica serovar typhimurium, s9, 1.5 h, dose 0.01-100 µM
[9] = Tmax in BALB/c mouse at 150 mg/kg, po measured after 15 to 360 mins by LC-MS/MS analysis; format: ADME, organism-based; conditions: in vivo, time 15-360 min
[10] = Toxicity in BALB/c mouse assessed as paralysis at 40 mg/kg, iv; format: organism-based; conditions: in vivo
[11] = Efflux ratio of apparent permeability across basolateral to apical side over apical to basolateral side in human Caco-2 cells expressing Pgp/BCRP at 10 uM incubated for 120 mins by LC-MS/MS analysis; format: ADME, cell-based; conditions: caco-2, 2 h
[12] = Half life in BALB/c mouse at 150 mg/kg, po measured after 15 to 360 mins by LC-MS/MS analysis; format: ADME, organism-based; conditions: in vivo, time 15-360 min
[13] = Toxicity in BALB/c mouse assessed as effect on weight loss at 40 mg/kg, iv; format: organism-based; conditions: in vivo
[14] = AUC (0 to last) in BALB/c mouse at 40 mg/kg, iv measured upto 1440 mins by LC-MS/MS analysis; format: ADME, organism-based; conditions: in vivo, 24 h
[15] = Cytotoxicity against human ARPE-19 cells assessed as reduction in cell viability incubated for 96 hrs by CellTiter 96 Aqueous One Solution Cell Proliferation Assay; format: toxicity, cell-based
[16] = Drug uptake in BALB/c mouse kidney at 40 mg/kg, iv measured after 2 hrs; format: ADME, organism-based; conditions: in vivo
[17] = Drug uptake in BALB/c mouse lung at 40 mg/kg, iv measured after 2 hrs; format: ADME, organism-based; conditions: in vivo
[18] = molecular target: T2, Proteasome subunit beta type-9 (Mus musculus) (UniProt P28076); experiment: Inhibition of LMP2 in mouse BV-2 cells using Ac-PAL-AMC as substrate at 0.3 to 1 uM measured after 24 hrs by fluorescence based SpectraMax M5e plate reader; format: cell-based; conditions: dose 0.3-1 µM
T2 sequence (whole entry): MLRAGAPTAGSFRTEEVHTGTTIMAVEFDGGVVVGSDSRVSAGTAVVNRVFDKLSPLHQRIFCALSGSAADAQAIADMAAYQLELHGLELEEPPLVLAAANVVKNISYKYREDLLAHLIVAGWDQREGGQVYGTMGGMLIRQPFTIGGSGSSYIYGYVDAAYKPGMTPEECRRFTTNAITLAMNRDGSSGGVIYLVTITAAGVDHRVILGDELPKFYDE

[19] = Drug uptake in BALB/c mouse liver at 40 mg/kg, iv measured after 2 hrs; format: ADME, organism-based; conditions: in vivo
[20] = Metabolic stability in human liver microsomes assessed as parent compound remaining at 2 uM measured at 60 mins by LC-MS/MS analysis; format: ADME, Microsome; conditions: 1 h
[21] = AUC infinity in BALB/c mouse at 150 mg/kg, po measured after 15 to 360 mins by LC-MS/MS analysis; format: ADME, organism-based; conditions: in vivo, time 15-360 min
[22] = Toxicity in BALB/c mouse assessed as tremor at 100 mg/kg, po; format: organism-based; conditions: in vivo
[23] = Toxicity in BALB/c mouse assessed as diarrhea at 40 mg/kg, iv; format: organism-based; conditions: in vivo
[24] = AUC (0 to last) in BALB/c mouse at 150 mg/kg, po measured after 15 to 360 mins by LC-MS/MS analysis; format: ADME, organism-based; conditions: in vivo, time 15-360 min
[25] = Toxicity in BALB/c mouse assessed as effect on hair loss at 100 mg/kg, po; format: organism-based; conditions: in vivo
[26] = Toxicity in BALB/c mouse assessed as effect on weight loss at 100 mg/kg, po; format: organism-based; conditions: in vivo
[27] = Drug uptake in BALB/c mouse brain at 40 mg/kg, iv measured after 2 hrs; format: ADME, organism-based; conditions: in vivo
[28] = Apparent permeability of the compound across basal to apical side in human Caco-2 cells expressing Pgp/BCRP at 10 uM incubated for 120 mins by LC-MS/MS analysis; format: ADME, cell-based; conditions: caco-2, 2 h
[29] = In vivo inhibition of LMP2 activity in BALB/c mouse brain at 40 mg/kg, iv measured after 24 hrs relative to control; format: functional
[30] = In vivo inhibition of LMP2 activity in BALB/c mouse brain at 40 mg/kg, iv measured after 2 hrs relative to control; format: functional
[31] = AUC infinity in BALB/c mouse at 40 mg/kg, iv measured upto 1440 mins by LC-MS/MS analysis; format: ADME, organism-based; conditions: in vivo, 24 h
[32] = Tmax in BALB/c mouse plasma at 40 mg/kg, iv measured upto 1440 mins by LC-MS/MS analysis; format: ADME, organism-based
ARPE-19 = experiment: Cytotoxicity against human ARPE-19 cells assessed as reduction in cell viability at 30 to 100 uM incubated for 96 hrs by CellTiter 96 Aqueous One Solution Cell Proliferation Assay; format: toxicity, cell-based; conditions: arpe-19, 96 h, dose 30-100 µM
[33] = Cytotoxicity against human HMC3 cells assessed as reduction in cell viability incubated for 96 hrs by CellTiter 96 Aqueous One Solution Cell Proliferation Assay; format: toxicity, cell-based
[34] = In vivo inhibition of LMP2 activity in BALB/c mouse blood at 150 mg/kg, po measured after 6 hrs post dose relative to control; format: functional
[35] = Toxicity in BALB/c mouse at 100 mg/kg, iv measured for 72 hrs; format: organism-based; conditions: in vivo
[36] = Cmax in BALB/c mouse at 150 mg/kg, po measured after 15 to 360 mins by LC-MS/MS analysis; format: ADME, organism-based; conditions: in vivo, time 15-360 min
[37] = In vivo inhibition of LMP2 activity in BALB/c mouse brain at 100 mg/kg, iv measured after 24 hrs relative to control; format: functional

SMILES: CC(C)C[C@H](NC(=O)[C@@H]1COCCCCCC(=O)N2C[C@H](F)C[C@H]2C(=O)N1)C(=O)[C@@]1(C)CO1
- Papp [1]: 6.62 10^-6 cm/s
- inhibition in vivo at 150 mg/kg [2]: 21%
- Activity [3]: Non-Toxic
- Activity [4]: Non-Toxic
- IC50 [5]: 0.087 µM
- F [6]: 9.8%
- Drug recovery [7]: 74%
- Activity [8]: Non-Toxic
- Tmax [9]: 20 min
- Activity [10]: Non-Toxic
- Ratio [11]: 2.62
- t1/2 [12]: 47.5 min
- Activity [13]: Non-Toxic
- AUClast [14]: 9689 ng·h/mL
- IC50 at 96 h [15]: > 100 µM
- Drug uptake [16]: Active
- Drug uptake [17]: Not Active
- inhibition [18]: Active
- Drug uptake [19]: Active
- Stability [20]: 33%
- AUC [21]: 3571 ng·h/mL
- Activity [22]: Non-Toxic
- Activity [23]: Non-Toxic
- AUClast [24]: 3553 ng·h/mL
- Activity [25]: Non-Toxic
- Activity [26]: Non-Toxic
- Drug uptake [27]: Active
- Papp [28]: 17.3 10^-6 cm/s
- inhibition in vivo at 40 mg/kg [29]: 39%
- inhibition in vivo at 40 mg/kg [30]: 56%
- AUC [31]: 9689 ng·h/mL
- Tmax [32]: 15 min
- Activity (ARPE-19): Non-Toxic
- IC50 at 96 h [33]: > 100 µM
- inhibition in vivo at 150 mg/kg [34]: 90%
- Activity [35]: Non-Toxic
- Cmax [36]: 3630 ng/mL
- inhibition in vivo at 100 mg/kg [37]: 65%

Reference: ChEMBL document CHEMBL5506017, “Brain-Permeable Immunoproteasome-Targeting Macrocyclic Peptide Epoxyketones for Alzheimer's Disease” (J Med Chem, 2024)
